The source of these data is US11285156B2, “Substituted piperazines as KRAS G12C inhibitors” (Amgen Inc., priority 2018, dated 2022).

Test [1] has as its system Phosphorylation of ERK1/2 in MIA PaCa-2 cells. The test can be described thus: Phospho-ERK1/2 MSD assay in MIA PaCa-2 cells. The format is cell-based. As to conditions: read-out: p-ERK IC50 (2 h, MiaPaCa-2; μM). The protocol:
(§1) Phospho-ERK1/2 MSD Assay:
(§2) Sixteen hours prior to compound treatment, MIA PaCa-2 or A549 cells were seeded in 96-well cell culture plates at a density of 25,000 cells/well and incubated at 37° C., 5% CO2. A compound dose-response titration was diluted in growth media, added to appropriate wells of a cell culture plate, and then incubated at 37° C., 5% CO2 for 2 or 4 hours (see Table 15). Following compound treatment, cells were stimulated with 10 ng/mL EGF (Roche 11376454001) for 10 min, washed with ice-cold Dulbecco's phosphate-buffered saline, no Ca2+ or Mg2+ (ThermoFisher Scientific 14190144), and then lysed in RIPA buffer (50 mM Tris-HCl pH 7.5, 1% Igepal, 0.5% sodium deoxycholate, 150 mM NaCl. and 0.5% sodium dodecyl sulfate) containing protease inhibitors (Roche 4693132001) and phosphatase inhibitors (Roche 4906837001). Phosphorylation of ERK1/2 in compound-treated lysates was assayed using Phospho-ERK1/2 Whole Cell Lysate kits (Meso Scale Discovery K151DWD) according to the manufacturer's protocol.

The test system of test [2] is Phosphorylation of ERK1/2 in A549 cells. The test can be described thus: Phospho-ERK1/2 MSD assay in A549 cells. Particulars: read-out: p-ERK IC50 (2 h, A549; μM). The test is classed as cell-based. The protocol: as §1
as §2, with “MIA PaCa-2 (ATCC® CRL-1420™) and A549 (ATCC® CCL-185™) cells were cultured in RPMI 1640 Medium (ThermoFisher Scientific 11875093) containing 10% fetal bovine serum (ThermoFisher Scientific 16000044) and 1× penicillin-streptomycin-glutamine (ThermoFisher Scientific 10378016). Sixteen” for “Sixteen”

Where [3] appears, read: 2 h compound treatment, MIA PaCa-2 cells, EGF stimulated.
Setting [4] is: Homo sapiens, A549, 2 h, 2 h compound treatment, A549 cells, EGF stimulated.
Setting [5] is: 2 h compound treatment, A549 cells, EGF stimulated.
The mark [6] stands for this setting: Homo sapiens, MIA PaCa-2, 2 h, 2 h compound treatment, MIA PaCa-2 cells, EGF stimulated.

In general, IC50 refers to the concentration at which inhibition is half-maximal.

Read-outs that look alike come from different tables or passages of the source.

On to `C=CC(=O)N1C[C@H](C)N(c2nc(=O)n(-c3c(N(C)C)ccnc3C(C)C)c3nc(-c4c(N)cccc4F)c(Cl)cc23)C[C@H]1C` [Example 55-54, 7-(2-Amino-6-fluoro-phenyl)-6-chloro-1-[4-(dimethylamino)-2-isopropyl-3-pyridyl]-4-[(2S,5R)-2,5-dimethyl-4-prop-2-enoyl-piperazin-1-yl]pyrido[2,3-d]pyrimidin-2-one], for which the IC50 was 0.016 µM in test [1] (setting [3]) and over 7.5 µM in test [2] (setting [4]). Take `C=CC(=O)N1C[C@H](C)N(c2nc(=O)n(-c3c(C(C)C)ccnc3C(C)C)c3nc(-c4ccccc4F)c(Cl)cc23)C[C@H]1C` [Example 102-3, 6-Chloro-1-(2,4-diisopropyl-3-pyridyl)-4-[(2S,5R)-2,5-dimethyl-4-prop-2-enoyl-piperazin-1-yl]-7-(2-fluorophenyl) pyrido[2,3-d]pyrimidin-2-one]: the IC50 in test [1] (setting [3]) is 0.032 µM; in test [2] (setting [4]), over 7.5 µM. As to `C=CC(=O)N1C[C@H](C)N(c2nc(=O)n(-c3c(C(C)C)ccnc3C(C)C)c3nc(-c4ccccc4F)c(Cl)cc23)C[C@H]1C` [Example 124-1, 6-Chloro-1-(2,4-diisopropyl-3-pyridyl)-4-[(2S,5R)-2,5-dimethyl-4-prop-2-enoyl-piperazin-1-yl]-7-(2-fluorophenyl)pyrido[2,3-d]pyrimidin-2-one], the IC50 in test [1] (setting [3]) was 0.024 µM; in test [2] (setting [5]) it was over 7.5 µM. Consider `C=CC(=O)N1C[C@H](C)N(c2nc(=O)n(-c3c(C)ccnc3C(C)C)c3nc(-c4c(F)cccc4[S+](C)[O-])c(Cl)cc23)C[C@H]1C` (atropisomer, axis not shown; (M)) [Example 211-1, (M)-4-((2S,5R)-4-Acryloyl-2,5-dimethylpiperazin-1-yl)-6-chloro-7-(2-fluoro-6-(methylsulfinyl)phenyl)-1-(2-isopropyl-4-methylpyridin-3-yl)pyrido[2,3-d]pyrimidin-2(1H)-one], for which the IC50 was 0.128 µM in test [1] (setting [3]) and over 7.5 µM in test [2] (setting [4]). With `C=CC(=O)N1C[C@H](C)N(c2nc(=O)n(-c3c(N(C)C)ccnc3C(C)C)c3nc(-c4c(N)cccc4F)c(Cl)cc23)C[C@H]1C` [Example 55-56, 7-(2-Amino-6-fluoro-phenyl)-6-chloro-1-[4-(dimethylamino)-2-isopropyl-3-pyridyl]-4-[(2S,5R)-2,5-dimethyl-4-prop-2-enoyl-piperazin-1-yl]pyrido[2,3-d]pyrimidin-2-one], the figures for the IC50 in test [1] (setting [3]) and in test [2] (setting [5]) were 0.01 µM and over 7.5 µM, respectively. As to `C=CC(=O)N1C[C@H](C)N(c2nc(=O)n(-c3c(C)cncc3C(C)C)c3nc(-c4ccccc4F)c(Cl)cc23)C[C@H]1C` (single isomer, unassigned) [Example 100-8], the IC50 in test [1] (setting [6]) is 0.042 µM; in test [2] (setting [4]) it was over 7.5 µM.

`C=CC(=O)N1C[C@H](C)N(c2nc(=O)n(-c3c(C)cc(N4CCC4)nc3C(C)C)c3nc(-c4ccccc4F)c(Cl)cc23)C[C@H]1C` (single isomer, unassigned) [Example 175-2]: the figures for the half-inhibitory concentration (IC50) in test [1] (setting [6]) and in test [2] (setting [4]) were 0.171 µM and over 7.5 µM, respectively. Consider `C=CC(=O)N1C[C@H](C)N(c2nc(=O)n(-c3c(C)ccnc3C(C)C)c3nc(-c4cc(C)sc4C)c(Cl)cc23)C[C@H]1C` (atropisomer, axis not shown; (M)) [Example 92-7, (M)-6-Chloro-4-[(2S,5R)-2,5-dimethyl-4-prop-2-enoyl-piperazin-1-yl]-7-(2,5-dimethyl-3-thienyl)-1-(2-isopropyl-4-methyl-3-pyridyl)pyrido [2,3-d]pyrimidin-2-one], for which the figures for the half-maximal inhibitory concentration (IC50) in test [1] (setting [6]) and in test [2] (setting [4]) were 0.259 µM and over 7.5 µM, respectively. In the same order, the values of `C=CC(=O)N1C[C@H](C)N(c2nc(=O)n(-c3c(Cl)ccnc3C(C)C)c3nc(-c4ccccc4F)c(Cl)cc23)C[C@H]1C` [Example 55-50, 6-Chloro-1-(4-chloro-2-isopropyl-3-pyridyl)-4-[(2S,5R)-2,5-dimethyl-4-prop-2-enoyl-piperazin-1-yl]-7-(2-fluorophenyl)pyrido[2,3-d]pyrimidin-2-one] are 0.023 µM and over 7.5 µM. For the compound `C=CC(=O)N1C[C@H](C)N(c2nc(=O)n(-c3c(C)ccnc3C(C)C)c3nc(-c4cc(S(C)(=O)=O)ccc4F)c(Cl)cc23)C[C@H]1C` (atropisomer, axis not shown; (M)) [Example 223, (M)-4-((2S,5R)-4-Acryloyl-2,5-dimethylpiperazin-1-yl)-6-chloro-7-(2-fluoro-5-(methylsulfonyl)phenyl)-1-(2-isopropyl-4-methylpyridin-3-yl)pyrido[2,3-d]pyrimidin-2(1H)-one], the values for the IC50 in test [1] (setting [6]) and in test [2] (setting [4]) were 0.659 µM and over 7.5 µM, respectively.

As for `C=CC(=O)N1C[C@H](C)N(c2nc(=O)n(-c3c(C)cc(C)nc3C(C)C)c3nc(-c4ccccc4F)c(Cl)cc23)C[C@H]1C` (single isomer, unassigned) [Example 165-1], the figures for the 50% inhibitory concentration (IC50) in test [1] (setting [6]) and in test [2] (setting [4]) were 0.049 µM and over 7.5 µM, respectively. On to `C=CC(=O)N1C[C@H](C)N(c2nc(=O)n(-c3c(C)ccnc3C(C)C)c3nc(-c4ccccc4CO)c(F)cc23)C[C@H]1C` (atropisomer, axis not shown; (M)) [Example 94-2, (M)-4-[(2S,5R)-2,5-dimethyl-4-prop-2-enoyl-piperazin-1-yl]-6-fluoro-7-[2-(hydroxymethyl)phenyl]-1-(2-isopropyl-4-methyl-3-pyridyl)pyrido [2,3-d]pyrimidin-2-one], for which the IC50 was 0.204 µM in test [1] (Homo sapiens, MIA PaCa-2, 2 h) and over 7.5 µM in test [2] (Homo sapiens, A549, 2 h).

`C=CC(=O)N1C[C@H](C)N(c2nc(=O)n(-c3c(C(C)C)cccc3C(C)C)c3nc(-c4ccccc4F)c(Cl)cc23)C[C@H]1C` [Example 102-1, 4-((2S,5R)-4-Acryloyl-2,5-dimethylpiperazin-1-yl)-6-chloro-1-(2,6-diisopropylphenyl)-7-(2-fluorophenyl)pyrido[2,3-d]pyrimidin-2(1H)-one]: the half-maximal inhibitory concentration (IC50) in test [1] (setting [6]) was found to be 0.395 µM; in test [2] (setting [4]), 5.25 µM.

In the case of `C=CC(=O)N1C[C@H](C)N(c2nc(=O)n(-c3c(C(C)C)ccnc3C(C)C)c3nc(-c4c(O)cccc4F)c(Cl)cc23)C[C@H]1C` (single isomer, unassigned) [Example 125-4], the figures for the concentration for half-maximal inhibition (IC50) in test [1] (setting [3]) and in test [2] (setting [5]) were 0.023 µM and over 7.5 µM, respectively. Take `C=CC(=O)N1C[C@H](C)N(c2nc(=O)n(-c3c(C)ccnc3C(C)C)c3nc(-c4c(F)cccc4[S+](C)[O-])c(Cl)cc23)C[C@H]1C` (atropisomer, axis not shown; (M)) [Example 211-2, (M)-4-((2S,5R)-4-Acryloyl-2,5-dimethylpiperazin-1-yl)-6-chloro-7-(2-fluoro-6-(methylsulfinyl)phenyl)-1-(2-isopropyl-4-methylpyridin-3-yl)pyrido[2,3-d]pyrimidin-2(1H)-one]: the concentration for half-maximal inhibition (IC50) in test [1] (setting [3]) was 0.106 µM; in test [2] (setting [5]), over 7.5 µM. Consider `C=CC(=O)N1C[C@H](C)N(c2nc(=O)n(-c3c(C)cc(C(C)C)nc3C(C)C)c3nc(-c4ccccc4F)c(Cl)cc23)C[C@H]1C` (single isomer, unassigned) [Example 176-1], for which the results for the half-maximal inhibitory concentration (IC50) in test [1] (setting [6]) and in test [2] (setting [4]) were 0.347 µM and 5.75 µM, respectively. With `C=CC(=O)N1C[C@H](C)N(c2nc(=O)n(-c3c(C(C)C)cnc(C)c3C)c3nc(-c4ccccc4F)c(Cl)cc23)C[C@H]1C` [Example 179, 4-((2S,5R)-4-Acryloyl-2,5-dimethylpiperazin-1-yl)-6-chloro-7-(2-fluorophenyl)-1-(5-isopropyl-2,3-dimethylpyridin-4-yl)pyrido[2,3-d]pyrimidin-2(1H)-one], the IC50 in test [2] (setting [4]) was over 7.5 µM. In the case of `C=CC(=O)N1C[C@H](C)N(C2=NC(=O)CN(CC(C)(C)C)c3nc(-c4ccccc4F)c(Cl)cc32)C[C@H]1C` [Example 217, 5-((2S,5R)-4-Acryloyl-2,5-dimethylpiperazin-1-yl)-7-chloro-8-(2-fluorophenyl)-1-neopentyl-1,2-dihydro-3H-pyrido[2,3-e][1,4]diazepin-3-one], the half-inhibitory concentration (IC50) in test [2] (Homo sapiens, A549, 2 h) is over 7.5 µM.
